Assay results as given in patent US20040039027A1, “Benzimidazole compounds, process for producing the same and use thereof” (priority 2000, published 2004).

Experiment: Stability test in artificial gastric juice
Assay type: physicochemical
Settings: artificial gastric juice with acetonitrile, pH 1.2, artificial gastric juice pH ca. 1.2 with acetonitrile, 37° C.; calculated assuming pseudo-first-order decomposition
Method: Stability Test in Artificial Gastric Juice
2-[[[3-Methyl-4-(2,2,2-trifluoroethoxy)-2-pyridyl]methyl]sulfinyl]-1H-benzimidazole(lansoprazole) and the compounds (ca. 1-2 mg) of Examples 1, 2 and 18 were respectively dissolved in acetonitrile (1 mL). To each solution (0.2 mL) were added acetonitrile (1 mL) and artificial gastric juice (3 mL, a solution prepared by dissolving sodium chloride (2.0 g) in hydrochloric acid (7.0 mL) and adding water to the amount of 1000 mL, pH ca. 1.2), and the stability of each compound after preservation at 37° C. was examined. Samples were taken immediately after addition of acetonitrile and artificial gastric juice, and 4, 8, 12, 16 and 20 hours thereafter, analyzed under the following HPLC analysis conditions, and the half-life was calculated on the assumption that the decomposition of the compound was a pseudo-first-order reaction. […]
detection wavelength: UV 285 nm column: YMC Pro C18 75 mm×4.6 mm I.D. mobile phase: the proportion of mobile phase A (0.01 mol/L aqueous ammonium acetate solution) and mobile phase B (acetonitrile) was changed with the lapse of time as in the following.
10 min. from immediately after addition: mobile phase A/mobile phase B=60/40→10/90 10 min. to 15 min.: mobile phase A/mobile phase B=10/90
15.1 min. to 20 min.: mobile phase A/mobile phase B=60/40 flow rate: 1.0 mL/min. column temperature: 25° C.

`Cc1c(OCC(F)(F)F)ccnc1C[S+]([O-])c1nc2ccccc2n1COC(=O)c1ccccc1` (stereo not drawn) [Example 1, [2-[[[3-Methyl-4-(2,2,2-trifluoroethoxy)-2-pyridinyl]methyl]sulfinyl]-1H-benzimidazol-1-yl]methyl benzoate] and `CCCOC(=O)OCn1c([S+]([O-])Cc2nccc(OCC(F)(F)F)c2C)nc2ccccc21` (stereo not drawn) [Example 18, [2-[[[3-Methyl-4-(2,2,2-trifluoroethoxy)-2-pyridinyl]methyl]sulfinyl]-1H-benzimidazol-1-yl]methyl propyl carbonate] cannot be ordered by half-life: ≥ 4 h for the first, ≥ 4 h for the second.

With `Cc1c(OCC(F)(F)F)ccnc1C[S+]([O-])c1nc2ccccc2[nH]1` (stereo not drawn) [lansoprazole, 2-[[[3-Methyl-4-(2,2,2-trifluoroethoxy)-2-pyridyl]methyl]sulfinyl]-1H-benzimidazole, reference compound] the half-life was < 0.03 h.
